Test: Biodistribution of ^64Cu complexes in balb/c mice
Description: The biodistribution of the ^64Cu complexes of compounds (1), (3) and (4) (0.10 ml intravenous injection) were evaluated in balb/c mice (5 animals per time point) at 3, 5, 10, 15, 20 and 30 minute time intervals. Biodistribution studies were performed in duplicate.

## C1CNCC2CNCCNCC(CN1)CNCCNC2.[64Cu+2] [^64Cu-labelled compound (4)]
BLADDER, 3 MIN
  % injected dose per gram: 13.15 % INJECTED DOSE PER GRAM
BLADDER, 5 MIN
  % injected dose per gram: 28.05 % INJECTED DOSE PER GRAM
BLADDER, 10 MIN
  % injected dose per gram: 69.91 % INJECTED DOSE PER GRAM
BLADDER, 15 MIN
  % injected dose per gram: 8.17 % INJECTED DOSE PER GRAM
BLADDER, 20 MIN
  % injected dose per gram: 16.38 % INJECTED DOSE PER GRAM
BLADDER, 30 MIN
  % injected dose per gram: 25.38 % INJECTED DOSE PER GRAM
BLOOD, 3 MIN
  % injected dose per gram: 8.25 % INJECTED DOSE PER GRAM
BLOOD, 5 MIN
  % injected dose per gram: 7.08 % INJECTED DOSE PER GRAM
BLOOD, 10 MIN
  % injected dose per gram: 4.41 % INJECTED DOSE PER GRAM
BLOOD, 15 MIN
  % injected dose per gram: 2.71 % INJECTED DOSE PER GRAM
BLOOD, 20 MIN
  % injected dose per gram: 1.40 % INJECTED DOSE PER GRAM
BLOOD, 30 MIN
  % injected dose per gram: 1.07 % INJECTED DOSE PER GRAM
BONE, 3 MIN
  % injected dose per gram: 1.60 % INJECTED DOSE PER GRAM
BONE, 5 MIN
  % injected dose per gram: 1.56 % INJECTED DOSE PER GRAM
BONE, 10 MIN
  % injected dose per gram: 1.28 % INJECTED DOSE PER GRAM
BONE, 15 MIN
  % injected dose per gram: 1.60 % INJECTED DOSE PER GRAM
BONE, 20 MIN
  % injected dose per gram: 0.89 % INJECTED DOSE PER GRAM
BONE, 30 MIN
  % injected dose per gram: 0.65 % INJECTED DOSE PER GRAM
GIT, 3 MIN
  % injected dose per gram: 2.62 % INJECTED DOSE PER GRAM
GIT, 5 MIN
  % injected dose per gram: 2.16 % INJECTED DOSE PER GRAM
GIT, 10 MIN
  % injected dose per gram: 1.49 % INJECTED DOSE PER GRAM
GIT, 15 MIN
  % injected dose per gram: 1.07 % INJECTED DOSE PER GRAM
GIT, 20 MIN
  % injected dose per gram: 0.89 % INJECTED DOSE PER GRAM
GIT, 30 MIN
  % injected dose per gram: 0.80 % INJECTED DOSE PER GRAM
HEART, 3 MIN
  % injected dose per gram: 3.25 % INJECTED DOSE PER GRAM
HEART, 5 MIN
  % injected dose per gram: 2.66 % INJECTED DOSE PER GRAM
HEART, 10 MIN
  % injected dose per gram: 1.60 % INJECTED DOSE PER GRAM
HEART, 15 MIN
  % injected dose per gram: 1.08 % INJECTED DOSE PER GRAM
HEART, 20 MIN
  % injected dose per gram: 0.51 % INJECTED DOSE PER GRAM
HEART, 30 MIN
  % injected dose per gram: 0.47 % INJECTED DOSE PER GRAM
KIDNEY, 3 MIN
  % injected dose per gram: 20.08 % INJECTED DOSE PER GRAM
KIDNEY, 5 MIN
  % injected dose per gram: 18.62 % INJECTED DOSE PER GRAM
KIDNEY, 10 MIN
  % injected dose per gram: 14.79 % INJECTED DOSE PER GRAM
KIDNEY, 15 MIN
  % injected dose per gram: 7.52 % INJECTED DOSE PER GRAM
KIDNEY, 20 MIN
  % injected dose per gram: 25.99 % INJECTED DOSE PER GRAM
KIDNEY, 30 MIN
  % injected dose per gram: 30.26 % INJECTED DOSE PER GRAM
LIVER, 3 MIN
  % injected dose per gram: 1.81 % INJECTED DOSE PER GRAM
LIVER, 5 MIN
  % injected dose per gram: 1.59 % INJECTED DOSE PER GRAM
LIVER, 10 MIN
  % injected dose per gram: 1.16 % INJECTED DOSE PER GRAM
LIVER, 15 MIN
  % injected dose per gram: 0.64 % INJECTED DOSE PER GRAM
LIVER, 20 MIN
  % injected dose per gram: 5.01 % INJECTED DOSE PER GRAM
LIVER, 30 MIN
  % injected dose per gram: 5.76 % INJECTED DOSE PER GRAM
LUNGS, 3 MIN
  % injected dose per gram: 5.85 % INJECTED DOSE PER GRAM
LUNGS, 5 MIN
  % injected dose per gram: 5.28 % INJECTED DOSE PER GRAM
LUNGS, 10 MIN
  % injected dose per gram: 2.84 % INJECTED DOSE PER GRAM
LUNGS, 15 MIN
  % injected dose per gram: 2.09 % INJECTED DOSE PER GRAM
LUNGS, 20 MIN
  % injected dose per gram: 1.13 % INJECTED DOSE PER GRAM
LUNGS, 30 MIN
  % injected dose per gram: 0.92 % INJECTED DOSE PER GRAM
MUSCLE, 3 MIN
  % injected dose per gram: 1.76 % INJECTED DOSE PER GRAM
MUSCLE, 5 MIN
  % injected dose per gram: 2.10 % INJECTED DOSE PER GRAM
MUSCLE, 10 MIN
  % injected dose per gram: 1.24 % INJECTED DOSE PER GRAM
MUSCLE, 15 MIN
  % injected dose per gram: 1.73 % INJECTED DOSE PER GRAM
MUSCLE, 20 MIN
  % injected dose per gram: 0.36 % INJECTED DOSE PER GRAM
MUSCLE, 30 MIN
  % injected dose per gram: 1.27 % INJECTED DOSE PER GRAM
SKIN, 3 MIN
  % injected dose per gram: 5.98 % INJECTED DOSE PER GRAM
SKIN, 5 MIN
  % injected dose per gram: 6.46 % INJECTED DOSE PER GRAM
SKIN, 10 MIN
  % injected dose per gram: 4.21 % INJECTED DOSE PER GRAM
SKIN, 15 MIN
  % injected dose per gram: 2.76 % INJECTED DOSE PER GRAM
SKIN, 20 MIN
  % injected dose per gram: 1.73 % INJECTED DOSE PER GRAM
SKIN, 30 MIN
  % injected dose per gram: 1.42 % INJECTED DOSE PER GRAM
SPLEEN, 3 MIN
  % injected dose per gram: 2.26 % INJECTED DOSE PER GRAM
SPLEEN, 5 MIN
  % injected dose per gram: 2.17 % INJECTED DOSE PER GRAM
SPLEEN, 10 MIN
  % injected dose per gram: 1.28 % INJECTED DOSE PER GRAM
SPLEEN, 15 MIN
  % injected dose per gram: 0.67 % INJECTED DOSE PER GRAM
SPLEEN, 20 MIN
  % injected dose per gram: 0.52 % INJECTED DOSE PER GRAM
SPLEEN, 30 MIN
  % injected dose per gram: 0.35 % INJECTED DOSE PER GRAM
STOMACH, 3 MIN
  % injected dose per gram: 3.53 % INJECTED DOSE PER GRAM
STOMACH, 5 MIN
  % injected dose per gram: 3.04 % INJECTED DOSE PER GRAM
STOMACH, 10 MIN
  % injected dose per gram: 1.84 % INJECTED DOSE PER GRAM
STOMACH, 15 MIN
  % injected dose per gram: 0.89 % INJECTED DOSE PER GRAM
STOMACH, 20 MIN
  % injected dose per gram: 0.70 % INJECTED DOSE PER GRAM
STOMACH, 30 MIN
  % injected dose per gram: 0.65 % INJECTED DOSE PER GRAM

— patent publication US6869589B1, “Cryptate compounds and methods for diagnosis and therapy” (Australian Nuclear Science & Technology Organization, priority 1999, dated 2005)
